From patent US10670605B2, “Cysteine reactive probes and uses thereof” (The Scripps Research Institute, priority 2015, dated 2020)

How the values were obtained:
Assay in all cases: Competitive isoTOP-ABPP, cell lysates
Format in all cases: binding
RELB C109 (Q01201) = molecular target: T1, RELB C109 (Q01201) (Homo sapiens, UniProt Q01201); details: for R value (DMSO/fragment): 500 μM
T1 sequence (Q01201 1-579): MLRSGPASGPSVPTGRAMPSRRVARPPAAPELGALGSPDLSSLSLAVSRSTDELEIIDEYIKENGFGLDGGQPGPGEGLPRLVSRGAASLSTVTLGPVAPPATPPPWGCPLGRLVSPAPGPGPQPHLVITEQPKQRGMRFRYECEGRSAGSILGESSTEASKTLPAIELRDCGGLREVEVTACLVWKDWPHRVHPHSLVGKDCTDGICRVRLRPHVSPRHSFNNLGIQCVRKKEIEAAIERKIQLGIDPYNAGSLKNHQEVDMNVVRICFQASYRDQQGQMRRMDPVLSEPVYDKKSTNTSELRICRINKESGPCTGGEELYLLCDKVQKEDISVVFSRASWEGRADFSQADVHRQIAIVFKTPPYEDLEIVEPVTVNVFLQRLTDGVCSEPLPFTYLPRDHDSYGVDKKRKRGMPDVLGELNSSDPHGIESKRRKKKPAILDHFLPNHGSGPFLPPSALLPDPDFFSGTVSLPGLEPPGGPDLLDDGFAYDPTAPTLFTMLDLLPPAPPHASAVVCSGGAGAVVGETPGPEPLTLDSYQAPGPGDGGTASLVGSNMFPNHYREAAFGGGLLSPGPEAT

UBE2O C375 (Q9C0C9) = molecular target: T2, UBE2O C375 (Q9C0C9) (Homo sapiens, UniProt Q9C0C9)
T2 sequence (Q9C0C9 1-1292): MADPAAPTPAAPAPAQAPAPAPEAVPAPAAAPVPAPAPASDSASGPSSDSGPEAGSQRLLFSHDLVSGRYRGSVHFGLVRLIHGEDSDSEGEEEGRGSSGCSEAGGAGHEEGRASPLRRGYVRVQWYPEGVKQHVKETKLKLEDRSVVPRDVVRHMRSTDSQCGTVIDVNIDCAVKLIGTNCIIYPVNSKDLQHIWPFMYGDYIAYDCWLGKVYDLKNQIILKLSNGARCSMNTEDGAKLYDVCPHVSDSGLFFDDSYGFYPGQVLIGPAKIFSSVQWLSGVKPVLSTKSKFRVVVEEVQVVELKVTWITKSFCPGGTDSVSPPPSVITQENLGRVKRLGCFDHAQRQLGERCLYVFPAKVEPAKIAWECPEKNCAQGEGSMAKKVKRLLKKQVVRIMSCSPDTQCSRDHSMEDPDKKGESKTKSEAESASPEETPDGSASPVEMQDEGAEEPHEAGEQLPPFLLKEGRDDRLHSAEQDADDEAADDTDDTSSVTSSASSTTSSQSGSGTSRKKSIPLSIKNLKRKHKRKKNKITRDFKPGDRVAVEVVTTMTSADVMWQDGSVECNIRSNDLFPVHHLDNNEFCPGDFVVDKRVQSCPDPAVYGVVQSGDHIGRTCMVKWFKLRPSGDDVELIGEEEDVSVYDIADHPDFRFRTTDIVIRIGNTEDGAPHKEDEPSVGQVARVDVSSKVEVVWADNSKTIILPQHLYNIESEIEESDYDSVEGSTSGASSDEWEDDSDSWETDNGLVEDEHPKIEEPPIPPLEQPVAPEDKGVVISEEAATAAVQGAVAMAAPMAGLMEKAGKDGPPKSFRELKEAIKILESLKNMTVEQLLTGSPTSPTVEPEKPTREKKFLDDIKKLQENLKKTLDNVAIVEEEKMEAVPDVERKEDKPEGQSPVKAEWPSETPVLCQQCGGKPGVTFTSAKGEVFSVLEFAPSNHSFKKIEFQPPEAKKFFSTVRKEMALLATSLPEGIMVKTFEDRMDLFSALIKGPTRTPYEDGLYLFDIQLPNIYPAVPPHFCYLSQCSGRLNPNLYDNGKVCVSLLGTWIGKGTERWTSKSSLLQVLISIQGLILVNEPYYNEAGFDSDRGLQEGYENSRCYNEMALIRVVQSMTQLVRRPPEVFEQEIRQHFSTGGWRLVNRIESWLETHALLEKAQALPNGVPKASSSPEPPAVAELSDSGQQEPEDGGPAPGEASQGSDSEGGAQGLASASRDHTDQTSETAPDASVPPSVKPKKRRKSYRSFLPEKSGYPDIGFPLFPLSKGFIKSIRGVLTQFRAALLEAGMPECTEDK

USP34 C741 (Q70CQ2) = USP34 C741 (Q70CQ2) (Homo sapiens, UniProt Q70CQ2)
Sequence of USP34 C741 (Q70CQ2) (Q70CQ2 whole entry): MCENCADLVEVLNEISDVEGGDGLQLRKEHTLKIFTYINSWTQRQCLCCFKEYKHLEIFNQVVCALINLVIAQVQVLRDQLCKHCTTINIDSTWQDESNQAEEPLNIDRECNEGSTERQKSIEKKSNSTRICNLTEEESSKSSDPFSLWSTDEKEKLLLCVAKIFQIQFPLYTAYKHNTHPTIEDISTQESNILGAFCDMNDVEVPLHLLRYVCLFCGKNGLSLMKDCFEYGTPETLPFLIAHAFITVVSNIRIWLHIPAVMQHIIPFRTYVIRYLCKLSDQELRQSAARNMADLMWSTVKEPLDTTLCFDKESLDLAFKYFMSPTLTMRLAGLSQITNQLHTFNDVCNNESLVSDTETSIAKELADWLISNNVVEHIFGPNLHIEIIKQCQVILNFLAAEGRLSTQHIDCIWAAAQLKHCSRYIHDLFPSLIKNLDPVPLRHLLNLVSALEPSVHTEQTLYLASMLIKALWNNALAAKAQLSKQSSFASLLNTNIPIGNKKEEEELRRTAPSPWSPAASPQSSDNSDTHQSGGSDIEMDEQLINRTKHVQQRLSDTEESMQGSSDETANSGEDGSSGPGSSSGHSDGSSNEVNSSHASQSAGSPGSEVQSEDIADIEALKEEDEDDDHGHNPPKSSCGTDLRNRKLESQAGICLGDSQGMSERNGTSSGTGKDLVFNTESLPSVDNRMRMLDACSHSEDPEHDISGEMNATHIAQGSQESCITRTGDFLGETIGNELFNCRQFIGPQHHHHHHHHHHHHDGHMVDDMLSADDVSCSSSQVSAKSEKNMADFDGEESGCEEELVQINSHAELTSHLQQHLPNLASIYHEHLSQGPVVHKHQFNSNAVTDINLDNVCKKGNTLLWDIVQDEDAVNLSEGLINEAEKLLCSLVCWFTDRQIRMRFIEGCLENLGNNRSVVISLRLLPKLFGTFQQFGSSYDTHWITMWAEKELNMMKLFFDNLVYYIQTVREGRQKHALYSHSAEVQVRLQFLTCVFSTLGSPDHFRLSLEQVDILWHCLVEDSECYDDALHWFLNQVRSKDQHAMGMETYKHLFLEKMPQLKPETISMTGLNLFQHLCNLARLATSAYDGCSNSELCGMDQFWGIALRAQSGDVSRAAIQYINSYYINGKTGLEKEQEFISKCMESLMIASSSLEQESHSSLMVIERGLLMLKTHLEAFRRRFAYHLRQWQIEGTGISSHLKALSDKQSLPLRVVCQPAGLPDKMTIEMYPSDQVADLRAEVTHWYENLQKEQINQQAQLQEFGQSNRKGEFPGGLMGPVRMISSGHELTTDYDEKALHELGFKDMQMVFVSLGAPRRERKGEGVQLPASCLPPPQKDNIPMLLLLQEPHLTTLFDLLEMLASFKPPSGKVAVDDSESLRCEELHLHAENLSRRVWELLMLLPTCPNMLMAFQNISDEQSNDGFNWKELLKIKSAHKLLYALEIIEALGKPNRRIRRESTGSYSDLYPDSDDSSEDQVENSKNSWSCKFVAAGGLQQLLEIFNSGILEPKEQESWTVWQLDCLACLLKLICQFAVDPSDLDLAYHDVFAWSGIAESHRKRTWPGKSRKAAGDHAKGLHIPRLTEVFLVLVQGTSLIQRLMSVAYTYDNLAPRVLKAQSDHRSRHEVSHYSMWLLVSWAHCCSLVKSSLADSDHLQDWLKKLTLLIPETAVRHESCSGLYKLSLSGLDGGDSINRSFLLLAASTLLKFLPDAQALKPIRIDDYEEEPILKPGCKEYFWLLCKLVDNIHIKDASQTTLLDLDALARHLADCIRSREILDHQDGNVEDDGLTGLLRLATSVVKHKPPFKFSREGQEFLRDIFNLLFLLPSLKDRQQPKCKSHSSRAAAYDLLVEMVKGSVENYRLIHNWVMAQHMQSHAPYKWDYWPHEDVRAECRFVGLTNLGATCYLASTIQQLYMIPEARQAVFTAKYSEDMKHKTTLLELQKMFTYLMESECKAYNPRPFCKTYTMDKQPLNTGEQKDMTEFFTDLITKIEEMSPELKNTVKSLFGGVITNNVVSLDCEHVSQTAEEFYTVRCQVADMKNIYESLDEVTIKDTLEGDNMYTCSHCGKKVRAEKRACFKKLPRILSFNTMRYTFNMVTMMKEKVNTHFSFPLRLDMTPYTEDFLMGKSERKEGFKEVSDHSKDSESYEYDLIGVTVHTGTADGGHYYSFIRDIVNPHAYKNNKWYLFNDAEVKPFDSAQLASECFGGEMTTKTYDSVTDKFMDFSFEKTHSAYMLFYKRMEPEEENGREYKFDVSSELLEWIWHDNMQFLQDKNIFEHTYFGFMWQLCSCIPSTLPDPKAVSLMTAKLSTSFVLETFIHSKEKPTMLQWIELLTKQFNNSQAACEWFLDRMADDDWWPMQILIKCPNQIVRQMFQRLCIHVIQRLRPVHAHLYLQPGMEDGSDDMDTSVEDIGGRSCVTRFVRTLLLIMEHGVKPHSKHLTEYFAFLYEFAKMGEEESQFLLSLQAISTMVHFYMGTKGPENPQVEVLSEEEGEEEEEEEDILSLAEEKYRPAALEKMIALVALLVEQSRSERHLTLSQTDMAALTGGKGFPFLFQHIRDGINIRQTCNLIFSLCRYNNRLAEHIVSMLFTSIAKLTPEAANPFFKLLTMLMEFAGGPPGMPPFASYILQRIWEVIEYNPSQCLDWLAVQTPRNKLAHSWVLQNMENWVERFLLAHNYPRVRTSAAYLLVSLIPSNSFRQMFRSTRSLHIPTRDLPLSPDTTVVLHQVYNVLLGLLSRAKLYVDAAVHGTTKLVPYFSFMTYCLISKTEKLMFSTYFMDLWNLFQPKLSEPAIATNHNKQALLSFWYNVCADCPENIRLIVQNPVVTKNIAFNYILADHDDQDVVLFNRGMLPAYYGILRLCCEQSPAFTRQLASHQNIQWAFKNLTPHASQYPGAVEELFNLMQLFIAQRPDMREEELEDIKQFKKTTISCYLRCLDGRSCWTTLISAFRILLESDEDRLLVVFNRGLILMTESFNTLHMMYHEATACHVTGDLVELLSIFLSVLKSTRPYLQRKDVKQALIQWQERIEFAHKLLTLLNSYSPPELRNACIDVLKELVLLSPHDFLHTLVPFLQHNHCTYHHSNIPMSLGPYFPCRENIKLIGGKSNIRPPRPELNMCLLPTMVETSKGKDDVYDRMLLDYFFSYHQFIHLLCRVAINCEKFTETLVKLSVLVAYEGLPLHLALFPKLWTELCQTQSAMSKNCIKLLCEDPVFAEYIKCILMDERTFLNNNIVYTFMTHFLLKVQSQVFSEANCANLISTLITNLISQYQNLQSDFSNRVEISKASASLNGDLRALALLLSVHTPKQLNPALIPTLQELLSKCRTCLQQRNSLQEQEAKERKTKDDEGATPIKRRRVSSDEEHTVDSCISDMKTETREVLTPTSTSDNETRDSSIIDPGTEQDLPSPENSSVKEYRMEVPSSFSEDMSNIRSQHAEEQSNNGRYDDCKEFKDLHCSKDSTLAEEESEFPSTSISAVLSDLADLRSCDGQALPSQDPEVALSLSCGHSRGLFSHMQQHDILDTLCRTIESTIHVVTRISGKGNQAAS

O=C(CCl)Nc1cccc2ncccc12 [compound 51]
isoTOP-ABPP reactivity profile ratio, Q01201_C109 (RELB C109 (Q01201); 500 μm, in-vitro_ramos): 1.6 | isoTOP-ABPP reactivity profile ratio, Q9C0C9_C375 (UBE2O C375 (Q9C0C9); 500 μm, in-vitro_ramos): 0.8 | isoTOP-ABPP reactivity profile ratio, Q70CQ2_C741 (USP34 C741 (Q70CQ2); 500 μm, in-vitro_ramos): 0.9

O=C(CCl)N1CCN(S(=O)(=O)c2ccccc2F)CC1 [compound 10]
isoTOP-ABPP ratio, Q9C0C9_C375 (UBE2O C375 (Q9C0C9); 500 μM, invitro, ramos): 0.8 | isoTOP-ABPP ratio, Q70CQ2_C741 (USP34 C741 (Q70CQ2); 500 μM, invitro, ramos): 0.9

CC(C)CCOCCNC(=O)CCl [compound 27]
isoTOP-ABPP ratio (reactivity profile), Q01201_C109 (RELB C109 (Q01201); 500 μm in-vitro ramos_231): 0.8 | isoTOP-ABPP ratio (reactivity profile), Q9C0C9_C375 (UBE2O C375 (Q9C0C9); 500 μm in-vitro ramos_231): 0.7

O=C(CCl)N1CCC(C(O)(c2ccccc2)c2ccccc2)CC1 [compound 20]
isoTOP-ABPP ratio (reactivity profile), Q70CQ2_C741 (USP34 C741 (Q70CQ2); 500 μm in-vitro ramos): 1.7 | isoTOP-ABPP ratio (reactivity profile), Q70CQ2_C741 (USP34 C741 (Q70CQ2); 500 μm in-vitro ramos_231): 2.8

C=CC(=O)N1CCC(c2noc3ccc(F)cc23)CC1 [compound 37]
isoTOP-ABPP reactivity ratio, Q70CQ2_C741 (USP34 C741 (Q70CQ2); 500 μm, in-vitro_ramos): 1.1

N#C/C(=C\c1cc(C(F)(F)F)cc(C(F)(F)F)c1)C(N)=O [compound 23]
isoTOP-ABPP ratio (reactivity profile), Q01201_C109 (RELB C109 (Q01201); 500 μm in-vitro ramos): 1.3 | isoTOP-ABPP ratio (reactivity profile), Q9C0C9_C375 (UBE2O C375 (Q9C0C9); 500 μm in-vitro ramos): 1.4

O=C(CCl)NC12CC3CC(CC(C3)C1)C2 [compound 21]
isoTOP-ABPP ratio (reactivity profile), Q9C0C9_C375 (UBE2O C375 (Q9C0C9); 500 μm in-vitro ramos): 2.4 | isoTOP-ABPP ratio (reactivity profile), Q70CQ2_C741 (USP34 C741 (Q70CQ2); 500 μm in-vitro ramos): 1.7

COc1ccc2c(c1)CCCN2C(=O)CCl [compound 2]
R value (DMSO/fragment) (RELB C109 (Q01201); in vitro, MDA-MB-231): 20.0 | R value (DMSO/fragment) (RELB C109 (Q01201); invitro, ramos): 20.0

COc1ccccc1OCCNC(=O)CCl [compound 28]
isoTOP-ABPP ratio (reactivity profile), Q01201_C109 (RELB C109 (Q01201); 500 μm in-vitro ramos): 1.1

O=C(CCl)NCCc1c[nH]c2ccccc12 [compound 13]
isoTOP-ABPP ratio, Q70CQ2_C741 (USP34 C741 (Q70CQ2); 500 μM, invitro, 231): 0.8

CC(Br)C(=O)Nc1cc(C(F)(F)F)cc(C(F)(F)F)c1 (stereo not shown) [compound 24]
isoTOP-ABPP ratio (reactivity profile), Q01201_C109 (RELB C109 (Q01201); 500 μm in-vitro ramos): 1.5

O=C(CCl)Nc1cc(C(F)(F)F)cc(C(F)(F)F)c1 [compound 3]
R value (DMSO/fragment) (UBE2O C375 (Q9C0C9); 500 μM, in vitro, MDA-MB-231): 9.8 | R value (DMSO/fragment) (UBE2O C375 (Q9C0C9); 500 μM, invitro, ramos): 4.1 | R value (DMSO/fragment) (USP34 C741 (Q70CQ2); 500 μM, invitro, ramos): 3.2

CC(C)(C)c1cc(NC(=O)CCl)on1 [compound 32]
isoTOP-ABPP reactivity ratio, Q01201_C109 (RELB C109 (Q01201); 500 μm, in-vitro_ramos): 20.0

C=CC(=O)Nc1cc(F)c(N2CCN(C(=O)OC(C)(C)C)CC2)c(F)c1 [compound 38]
isoTOP-ABPP reactivity ratio, Q70CQ2_C741 (USP34 C741 (Q70CQ2); 500 μm, in-vitro_ramos): 4.1

C=CC(=O)N(Cc1cccnc1)c1cc(C(F)(F)F)cc(C(F)(F)F)c1 [compound 31]
isoTOP-ABPP reactivity ratio, Q70CQ2_C741 (USP34 C741 (Q70CQ2); 500 μm, in-vitro_ramos_231): 4.2
